Values of other authors as cited in patent publication US20090214643A1, “IMPROVED PHARMACOKINETIC PROFILE OF BETA-ADRENERGIC INVERSE AGONISTS FOR THE TREATMENT OF PULMONARY AIRWAY DISEASES” (priority 2005, published 2009).

Assays:
[1] = single dose, Corgard product insert

Row | Compound | response of asthmatics to beta blocker administration (asthmatics; medical literature accounts) | average Tmax (time to peak serum level) [1] [h] | effect on airway function observed in asthmatics (asthmatics; literature 1962, 1964)
1 | CC(C)(C)NCC(O)COc1cccc2c1CC(O)C(O)C2 (stereo not drawn) [nadolol] | serious pulmonary function reduction | 3.5 | 
2 | CC(C)NCC(O)c1ccc2ccccc2c1 (stereo not drawn) [pronethalol] |  |  | reduction in airway function
